± gives the expanded uncertainty stated by the source.
Experiment: xn = mol fraction of the nth substance listed
Settings: 100.5 kPa, Liquid; for viscosity: Capillary tube (Ostwald / Ubbelohde) method

COC(=O)c1ccccc1 [methyl benzoate] + CCO
viscosity (288.15 K, x1 = 0.05): 1.324 ± 0.014 mPa·s
viscosity (288.15 K, x1 = 0.1): 1.323 ± 0.014 mPa·s
viscosity (288.15 K, x1 = 0.15): 1.338 ± 0.014 mPa·s
viscosity (288.15 K, x1 = 0.2): 1.359 ± 0.014 mPa·s
viscosity (288.15 K, x1 = 0.25): 1.383 ± 0.014 mPa·s
viscosity (288.15 K, x1 = 0.3): 1.417 ± 0.014 mPa·s
viscosity (288.15 K, x1 = 0.35): 1.455 ± 0.015 mPa·s
viscosity (288.15 K, x1 = 0.4): 1.496 ± 0.015 mPa·s
viscosity (288.15 K, x1 = 0.45): 1.541 ± 0.015 mPa·s
viscosity (288.15 K, x1 = 0.5): 1.589 ± 0.015 mPa·s
viscosity (288.15 K, x1 = 0.55): 1.64 ± 0.015 mPa·s
viscosity (288.15 K, x1 = 0.6): 1.692 ± 0.016 mPa·s
viscosity (288.15 K, x1 = 0.65): 1.746 ± 0.016 mPa·s
viscosity (288.15 K, x1 = 0.7): 1.807 ± 0.016 mPa·s
viscosity (288.15 K, x1 = 0.75): 1.87 ± 0.017 mPa·s
viscosity (288.15 K, x1 = 0.8): 1.942 ± 0.017 mPa·s
viscosity (288.15 K, x1 = 0.85): 2.03 ± 0.018 mPa·s
viscosity (288.15 K, x1 = 0.9): 2.118 ± 0.018 mPa·s
viscosity (288.15 K, x1 = 0.95): 2.207 ± 0.019 mPa·s
viscosity (288.15 K, x1 = 1): 2.297 ± 0.019 mPa·s
mass density (288.15 K, x1 = 0.05): 825.66 ± 0.4 kg/m3
mass density (288.15 K, x1 = 0.1): 853.88 ± 0.36 kg/m3
mass density (288.15 K, x1 = 0.15): 879.1 ± 0.33 kg/m3
mass density (288.15 K, x1 = 0.2): 901.63 ± 0.31 kg/m3
mass density (288.15 K, x1 = 0.25): 922.04 ± 0.29 kg/m3
mass density (288.15 K, x1 = 0.3): 940.62 ± 0.28 kg/m3
mass density (288.15 K, x1 = 0.35): 957.58 ± 0.28 kg/m3
mass density (288.15 K, x1 = 0.4): 973.15 ± 0.28 kg/m3
mass density (288.15 K, x1 = 0.45): 987.48 ± 0.28 kg/m3
mass density (288.15 K, x1 = 0.5): 1000.69 ± 0.29 kg/m3
mass density (288.15 K, x1 = 0.55): 1012.94 ± 0.31 kg/m3
mass density (288.15 K, x1 = 0.6): 1024.33 ± 0.33 kg/m3
mass density (288.15 K, x1 = 0.65): 1034.94 ± 0.35 kg/m3
mass density (288.15 K, x1 = 0.7): 1044.83 ± 0.37 kg/m3
mass density (288.15 K, x1 = 0.75): 1054.13 ± 0.39 kg/m3
mass density (288.15 K, x1 = 0.8): 1062.88 ± 0.42 kg/m3
mass density (288.15 K, x1 = 0.85): 1071.11 ± 0.44 kg/m3
mass density (288.15 K, x1 = 0.9): 1078.93 ± 0.47 kg/m3
mass density (288.15 K, x1 = 0.95): 1086.31 ± 0.49 kg/m3
mass density (288.15 K, x1 = 1): 1093.23 ± 0.52 kg/m3
viscosity (298.15 K, x1 = 0.05): 1.092 ± 0.013 mPa·s
viscosity (298.15 K, x1 = 0.1): 1.094 ± 0.014 mPa·s
viscosity (298.15 K, x1 = 0.15): 1.107 ± 0.014 mPa·s
viscosity (298.15 K, x1 = 0.2): 1.122 ± 0.014 mPa·s
viscosity (298.15 K, x1 = 0.25): 1.144 ± 0.014 mPa·s
viscosity (298.15 K, x1 = 0.3): 1.171 ± 0.014 mPa·s
viscosity (298.15 K, x1 = 0.35): 1.199 ± 0.014 mPa·s
viscosity (298.15 K, x1 = 0.4): 1.232 ± 0.014 mPa·s
viscosity (298.15 K, x1 = 0.45): 1.266 ± 0.014 mPa·s
viscosity (298.15 K, x1 = 0.5): 1.303 ± 0.014 mPa·s
viscosity (298.15 K, x1 = 0.55): 1.341 ± 0.014 mPa·s
viscosity (298.15 K, x1 = 0.6): 1.384 ± 0.015 mPa·s
viscosity (298.15 K, x1 = 0.65): 1.429 ± 0.015 mPa·s
viscosity (298.15 K, x1 = 0.7): 1.475 ± 0.015 mPa·s
viscosity (298.15 K, x1 = 0.75): 1.526 ± 0.015 mPa·s
viscosity (298.15 K, x1 = 0.8): 1.581 ± 0.016 mPa·s
viscosity (298.15 K, x1 = 0.85): 1.645 ± 0.016 mPa·s
viscosity (298.15 K, x1 = 0.9): 1.712 ± 0.016 mPa·s
viscosity (298.15 K, x1 = 0.95): 1.784 ± 0.017 mPa·s
viscosity (298.15 K, x1 = 1): 1.851 ± 0.017 mPa·s
mass density (298.15 K, x1 = 0.05): 816.86 ± 0.42 kg/m3
mass density (298.15 K, x1 = 0.1): 844.92 ± 0.38 kg/m3
mass density (298.15 K, x1 = 0.15): 869.96 ± 0.35 kg/m3
mass density (298.15 K, x1 = 0.2): 892.4 ± 0.32 kg/m3
mass density (298.15 K, x1 = 0.25): 912.73 ± 0.31 kg/m3
mass density (298.15 K, x1 = 0.3): 931.27 ± 0.29 kg/m3
mass density (298.15 K, x1 = 0.35): 948.19 ± 0.29 kg/m3
mass density (298.15 K, x1 = 0.4): 963.7 ± 0.28 kg/m3
mass density (298.15 K, x1 = 0.45): 978.01 ± 0.29 kg/m3
mass density (298.15 K, x1 = 0.5): 991.23 ± 0.29 kg/m3
mass density (298.15 K, x1 = 0.55): 1003.42 ± 0.3 kg/m3
mass density (298.15 K, x1 = 0.6): 1014.81 ± 0.32 kg/m3
mass density (298.15 K, x1 = 0.65): 1025.44 ± 0.34 kg/m3
mass density (298.15 K, x1 = 0.7): 1035.36 ± 0.36 kg/m3
mass density (298.15 K, x1 = 0.75): 1044.67 ± 0.38 kg/m3
mass density (298.15 K, x1 = 0.8): 1053.41 ± 0.41 kg/m3
mass density (298.15 K, x1 = 0.85): 1061.7 ± 0.43 kg/m3
mass density (298.15 K, x1 = 0.9): 1069.53 ± 0.46 kg/m3
mass density (298.15 K, x1 = 0.95): 1076.94 ± 0.48 kg/m3
mass density (298.15 K, x1 = 1): 1083.92 ± 0.51 kg/m3
viscosity (308.15 K, x1 = 0.05): 0.911 ± 0.013 mPa·s
viscosity (308.15 K, x1 = 0.1): 0.915 ± 0.013 mPa·s
viscosity (308.15 K, x1 = 0.15): 0.924 ± 0.013 mPa·s
viscosity (308.15 K, x1 = 0.2): 0.94 ± 0.013 mPa·s
viscosity (308.15 K, x1 = 0.25): 0.958 ± 0.013 mPa·s
viscosity (308.15 K, x1 = 0.3): 0.981 ± 0.013 mPa·s
viscosity (308.15 K, x1 = 0.35): 1.006 ± 0.013 mPa·s
viscosity (308.15 K, x1 = 0.4): 1.031 ± 0.013 mPa·s
viscosity (308.15 K, x1 = 0.45): 1.061 ± 0.014 mPa·s
viscosity (308.15 K, x1 = 0.5): 1.091 ± 0.014 mPa·s
viscosity (308.15 K, x1 = 0.55): 1.123 ± 0.014 mPa·s
viscosity (308.15 K, x1 = 0.6): 1.158 ± 0.014 mPa·s
viscosity (308.15 K, x1 = 0.65): 1.193 ± 0.014 mPa·s
viscosity (308.15 K, x1 = 0.7): 1.231 ± 0.014 mPa·s
viscosity (308.15 K, x1 = 0.75): 1.275 ± 0.014 mPa·s
viscosity (308.15 K, x1 = 0.8): 1.318 ± 0.015 mPa·s
viscosity (308.15 K, x1 = 0.85): 1.369 ± 0.015 mPa·s
viscosity (308.15 K, x1 = 0.9): 1.421 ± 0.015 mPa·s
viscosity (308.15 K, x1 = 0.95): 1.48 ± 0.015 mPa·s
viscosity (308.15 K, x1 = 1): 1.531 ± 0.016 mPa·s
mass density (308.15 K, x1 = 0.05): 807.97 ± 0.43 kg/m3
mass density (308.15 K, x1 = 0.1): 835.86 ± 0.39 kg/m3
mass density (308.15 K, x1 = 0.15): 860.69 ± 0.36 kg/m3
mass density (308.15 K, x1 = 0.2): 883.02 ± 0.34 kg/m3
mass density (308.15 K, x1 = 0.25): 903.27 ± 0.32 kg/m3
mass density (308.15 K, x1 = 0.3): 921.76 ± 0.3 kg/m3
mass density (308.15 K, x1 = 0.35): 938.63 ± 0.3 kg/m3
mass density (308.15 K, x1 = 0.4): 954.11 ± 0.29 kg/m3
mass density (308.15 K, x1 = 0.45): 968.36 ± 0.29 kg/m3
mass density (308.15 K, x1 = 0.5): 981.53 ± 0.3 kg/m3
mass density (308.15 K, x1 = 0.55): 993.75 ± 0.3 kg/m3
mass density (308.15 K, x1 = 0.6): 1005.11 ± 0.31 kg/m3
mass density (308.15 K, x1 = 0.65): 1015.73 ± 0.33 kg/m3
mass density (308.15 K, x1 = 0.7): 1025.64 ± 0.35 kg/m3
mass density (308.15 K, x1 = 0.75): 1034.95 ± 0.37 kg/m3
mass density (308.15 K, x1 = 0.8): 1043.73 ± 0.4 kg/m3
mass density (308.15 K, x1 = 0.85): 1052.04 ± 0.42 kg/m3
mass density (308.15 K, x1 = 0.9): 1059.87 ± 0.45 kg/m3
mass density (308.15 K, x1 = 0.95): 1067.3 ± 0.47 kg/m3
mass density (308.15 K, x1 = 1): 1074.34 ± 0.5 kg/m3
viscosity (318.15 K, x1 = 0.05): 0.766 ± 0.013 mPa·s
viscosity (318.15 K, x1 = 0.1): 0.77 ± 0.013 mPa·s
viscosity (318.15 K, x1 = 0.15): 0.782 ± 0.013 mPa·s
viscosity (318.15 K, x1 = 0.2): 0.797 ± 0.013 mPa·s
viscosity (318.15 K, x1 = 0.25): 0.814 ± 0.013 mPa·s
viscosity (318.15 K, x1 = 0.3): 0.834 ± 0.013 mPa·s
viscosity (318.15 K, x1 = 0.35): 0.855 ± 0.013 mPa·s
viscosity (318.15 K, x1 = 0.4): 0.877 ± 0.013 mPa·s
viscosity (318.15 K, x1 = 0.45): 0.902 ± 0.013 mPa·s
viscosity (318.15 K, x1 = 0.5): 0.928 ± 0.013 mPa·s
viscosity (318.15 K, x1 = 0.55): 0.954 ± 0.013 mPa·s
viscosity (318.15 K, x1 = 0.6): 0.982 ± 0.013 mPa·s
viscosity (318.15 K, x1 = 0.65): 1.014 ± 0.014 mPa·s
viscosity (318.15 K, x1 = 0.7): 1.047 ± 0.014 mPa·s
viscosity (318.15 K, x1 = 0.75): 1.083 ± 0.014 mPa·s
viscosity (318.15 K, x1 = 0.8): 1.122 ± 0.014 mPa·s
viscosity (318.15 K, x1 = 0.85): 1.166 ± 0.014 mPa·s
viscosity (318.15 K, x1 = 0.9): 1.208 ± 0.014 mPa·s
viscosity (318.15 K, x1 = 0.95): 1.255 ± 0.015 mPa·s
viscosity (318.15 K, x1 = 1): 1.297 ± 0.015 mPa·s
mass density (318.15 K, x1 = 0.05): 798.9 ± 0.44 kg/m3
mass density (318.15 K, x1 = 0.1): 826.58 ± 0.41 kg/m3
mass density (318.15 K, x1 = 0.15): 851.28 ± 0.37 kg/m3
mass density (318.15 K, x1 = 0.2): 873.48 ± 0.35 kg/m3
mass density (318.15 K, x1 = 0.25): 893.66 ± 0.33 kg/m3
mass density (318.15 K, x1 = 0.3): 912.06 ± 0.32 kg/m3
mass density (318.15 K, x1 = 0.35): 928.88 ± 0.31 kg/m3
mass density (318.15 K, x1 = 0.4): 944.3 ± 0.3 kg/m3
mass density (318.15 K, x1 = 0.45): 958.52 ± 0.3 kg/m3
mass density (318.15 K, x1 = 0.5): 971.68 ± 0.31 kg/m3
mass density (318.15 K, x1 = 0.55): 983.88 ± 0.3 kg/m3
mass density (318.15 K, x1 = 0.6): 995.26 ± 0.31 kg/m3
mass density (318.15 K, x1 = 0.65): 1005.87 ± 0.32 kg/m3
mass density (318.15 K, x1 = 0.7): 1015.8 ± 0.34 kg/m3
mass density (318.15 K, x1 = 0.75): 1025.13 ± 0.36 kg/m3
mass density (318.15 K, x1 = 0.8): 1033.93 ± 0.39 kg/m3
mass density (318.15 K, x1 = 0.85): 1042.24 ± 0.41 kg/m3
mass density (318.15 K, x1 = 0.9): 1050.1 ± 0.44 kg/m3
mass density (318.15 K, x1 = 0.95): 1057.55 ± 0.46 kg/m3
mass density (318.15 K, x1 = 1): 1064.62 ± 0.49 kg/m3
